Results on nine compounds are retold here after patent US20120258944A1, “ANTIOXIDANTS FOR USE IN THERAPY” (priority 2009, published 2012).

A short description of data set [1]: ABTS radical cation assay (TEAC) in aqueous PBS buffer. Conditions: 6.08 micro-M, PBS buffer pH 7.4, after 5 min. On the procedure:
In order to investigate its aqueous phase performance, we thought that it would be interesting to determine its Trolox Equivalent Antioxidant Capacity (TEAC) (Free Rad. Biol. Med. 1999, 26, 1231-1237) which has been used to quantify the antioxidant activity of biological fluids, extracts and pure compounds. The TEAC value is defined as the concentration of Trolox which has an equivalent antioxidant potential as a 1 mM solution of the compound under investigation (Free Rad. Biol. Med. 1996, 20, 933-956).
A 2,2′-azinobis(3-ethylbenzothiazoline-6 sulphonic acid radical cation (ABTS•+) assay was used to determine relative TEAC values. To a preformed solution of ABTS•+ in PBS buffer, pH 7.4, with an absorbance slightly above 0.7 were added various amounts (3-30 microM) of organoselenium compound 1, Trolox, sodium ascorbate and N-acetylcysteine. The absorbance at 734 inn was recorded immediately after mixing and then every minute for the next 8 minutes.
Antioxidant activity as determined by the capacity of the antioxidant to decolorize the ABTS^+ radical cation was determined essentially as described in the literature (Acc. Chem. Res. 1986, 19, 194-201). […] In a typical experiment, the antioxidant (1.52 micro-L of a 3.00 mM solution in MeOH or water; final concentration=6.08 micro-M) was syringed into 0.750 mL of the ABTS^+ radical cation solution. After initial mixing, the absorbance was recorded every minute for the next eight minutes.

The subject of data set [2] is MG-63, HEK-293, SHSY-5y, MRC-5 and CaCo-2-cells. Briefly: Alamar Blue cell viability/proliferation assay. The settings on record: 60 micro-M, day 1 to day 7. Type of data set: cell-based, human. An excerpt:
Alamar Blue is a non-toxic metabolic indicator for viable cells. Following uptake, the dye becomes reduced and causes a change in the colour of the cell. The colour change correlates reasonably well with the number of living cells in the sample.
Cells w/o antioxidant were used as controls.
Alamar Blue is a non-toxic metabolic indicator for viable cells. Upon uptake into the cell the dye becomes reduced and changes colour. The colour change correlates approximately with the number of living cells in the sample.
On the technique in general: Resazurin is reduced to fluorescent resorufin, in cell work by metabolically active cells.

Another data set deals with kidney slice. As to the kind of experiment: Organ model TBARS experiment (TBA-MDA assay) in kidney slices.
Another data set has as its system liver microsomes. Conditions: cited from earlier work.
The conditions of data set [3]: coupled reductase method; cited from earlier work.
The conditions of data set [4]: cited from earlier work; for Inhibited Rate of Linoleic Acid Peroxidation (Rinh): two-phase model, N-acetylcysteine in the aqueous phase.
Data set [5] deals with human umbilical vein endothelial cells (HUVEC). As to the kind of experiment: XTT in vitro toxicology test in human umbilical vein endothelial cells. Type of data set: cell-based. The settings on record: for toxic concentration: HUVEC; for relative toxicity among the compounds: human endothelial cells, up to 72 hours. How it is done: As a negative control, cells incubated with medium containing 0.5% DMSO (corresponding to the highest DMSO concentration above) was used. As a positive control, cells were incubated in the presence of 20% EtOH.
After the incubation with the compounds, the wells were washed with PBS to remove substances which could interfere with the assay. 40 μl of fresh medium 200 without phenol red was added together with 10 μl XTT substance (according to the manufacturer's instructions). The plates were incubated for 8 hrs and the colour development was monitored by measuring the absorbance at 450 nm.
After incubation, the number of viable cells was assessed by observing the amount of metabolized XTT (2,3-bis[2-methoxy-4-nitro-5-sulphophenyl]-2H-tetrazolium-5-carboxyanilide inner salt).
A general note: Tetrazolium dyes change colour on reduction, which living cells bring about.

For a further data set, the system named is PLB985 cells. As to the kind of experiment: Resazurin based in vitro toxicology assay (TOX8). Format: cell-based, human. Conditions: PLB985, 3 hours, 120 μM. On the procedure:
The viability of cells treated with the compounds was also analyzed using a Resazurin based in vitro Toxicology Assay Kit (SigmaAldrich TOX8). Resazurin systems measure the metabolic activity of living cell. Resazurin in its oxidized form (blue) is reduced (red) by living cells and the amount of dye conversion is measured fluorometrically or spectrophotometrically indicating the degree of cytotoxicity.
1) 75 micro-l of PLB985 cells (1 million cells/ml) is mixed with 25 micro-l of Compounds 1, 2, 3 and D (480, 120, 15 and 0.48 micro-M) in a 96 well plate in duplicates. 2) 10 micro-L of Resazurin solution is added to each well and the plate is incubated at 37° C. for 3 hours. 3) Spectrophotometrical analysis is performed in plate reader at 600 and 690 nm.
FIG. 18: Cell viability of compounds in human PLB-985 cell line. Concentrations of compounds 120; 60; 30; 3.75; 0.12 and […] final concentrations. Measurement that indicates cell cytotoxicity (In vitro toxicology assay, TOX-8). The bars show increased level of cytotoxicity (analysis of absorbance of 600 nm substracted with absorbance 690 nm).

Data set [6] has as its system human Neutrophils and human PBMCs. As to the kind of experiment: Intracellular ROS, luminol luminescence with SOD and catalase, PMA or fMLF stimulated cells. Format: cell-based. The settings on record: PMA or fMLF 30 ng/ml; compounds 120, 60, 30 microM; FIG. 5-8. On the procedure:
(§1) Validation was performed by stimulating cells with PMA and fMLF. When treated with the antioxidants, altered level of ROS production from the cells was measured using luminometry. Both intracellular and extracellular effect on ROS on the cells was analyzed using isoluminol (extracellular) and luminol (intracellular when co-administered with SOD and catalase) (Dahlgren et al. “Respiratory burst in human neutrophils”, Journal of Immunological Methods 232 1999; 3-14).
The luminol reagent buffer is made of HBSS buffer (with Ca^2+), luminol and SOD/Catalase.
(§2) 1) Add 25 microL of antioxidants to assay plate to get proper concentrations in a total reaction volume of 100 micro-L. 2) Add 25 microL of PMA (120 ng/ml) and fMLF (120 ng/ml) to assay plate to get concentration of 30 ng/ml in a total reaction volume of 100 microL. 3) Add 50 microL of cell suspension (2 million cells/ml) to each well. Immediately after addition of cell suspension initiate luminescence measurement; the reaction starts at once when the cells are added to the assay plate. Measurement points are taken at 1-minute intervals for 25 minutes. Data is presented as AUC (Area Under Curve) by a summary of all collected measurements for each well.
FIG. 5: Intracellular ROS analyzed by Luminol (intracellular ROS) induced luminescence in human Neutrophils. ROS induced with PMA (30 ng/ml) with 200, 100 or 0 microM NAC. Concentrations of compounds 120, 60, 30 and 0 microM final concentrations.
FIG. 6: Intracellular ROS analyzed by Luminol (intracellular ROS) induced luminescence in human Neutrophils. ROS induced with fMLF (30 ng/ml) with 200, 100 or 0 microM NAC. Concentrations of compounds 120, 60, 30 and 0 microM final concentrations.
FIG. 7: Intracellular ROS analyzed by Luminol (intracellular ROS) induced luminescence in human PBMCs. ROS induced with PMA (30 ng/ml) with 200, 100 or 0 microM NAC. Concentrations of compounds 120, 60, 30 and 0 microM final concentrations.
FIG. 8: Intracellular ROS analyzed by Luminol (intracellular ROS) induced luminescence in human PBMCs. […]

Data set [7] concerns human umbilical vein endothelial cells (HUVEC). Briefly: Visual evaluation of HUVECs under the microscope (dislodging from the surface). The settings on record: HUVEC. How it is done: Cells were harvested and resuspended in supplemented medium 200 without phenol red. 50 000 cells were added in duplicates to 96-well plates. The compounds were tested on HUVECs according to the following concentrations.
The compounds were diluted in Medium 200 from the 0.1M stock solution. The toxic effects of the compounds were tested after 24 hrs, 48 hrs and 72 hrs.
By visually looking at the cells under the microscope and estimating the dislodging from the surface, the state of the cells was evaluated.

In data set [8] the test system is human neutrophils and PBMCs, rat neutrophils and PBMCs, human PLB-985 cell line. As to the kind of experiment: Extracellular ROS, isoluminol luminescence, PMA or fMLF stimulated cells. Type of data set: cell-based. Conditions: PMA or fMLF 30 ng/ml; compounds 120 to 0 microM; FIG. 1-4, 9-12, 14-17. On the procedure: as §1
The isoluminol reagent buffer was made of HBSS buffer (with Ca^2+), Isoluminol and HRP.
as §2
FIG. 1: Extracellular ROS analyzed by Isoluminol induced luminescence in human Neutrophils. ROS induced with PMA (30 ng/ml) with 200, 100 or 0 microM NAC. Concentrations of compounds 120, 60, 30 and 0 microM final concentrations.
FIG. 9: Extracellular ROS analyzed by Isoluminol induced luminescence in rat Neutrophils. ROS induced with PMA (30 ng/ml) with 200, 100 or 0 microM NAC. Concentrations of compounds 120, 60, 30 and 0 microM final concentrations.
FIG. 11: Extracellular ROS analyzed by Isoluminol induced luminescence in human PLB-985 cell line. ROS induced with PMA (30 ng/ml) with 200, 100 or 0 microM NAC. Concentrations of compounds 120, 60, 30 and 0 microM final concentrations.

For `CC(=O)N[C@@H](CS)C(=O)O` [N-acetylcysteine], the TEAC value in data set [1] was found to be 2.4.

For `Cc1c(C)c2c(c(C)c1O)CCC(C)(C(=O)O)O2` (stereo not shown) [Trolox], in data set [2], the “cell growth (Alamar Blue)” value is “normal cell growth patterns”.

Take `Cc1cc2c(c(C)c1O)CC(C)[Se]2` (stereo not shown) [Compound 6]: the “potency as inhibitor of TBARS production compared with references” value in the data set on kidney slice is “more potent inhibitors of TBARS production than Trolox and N-acetylcysteine”. For the same compound, the “concentration able to inhibit 50% of the TBARS formation in the control incubation” value with kidney slice (re-oxygenation after Argon) is reported as “sub-micromolar”.

In the case of `Oc1ccc2c(c1)CCO2` [X═O], the “inhibition of lipid peroxidation in liver microsomes” value (“inhibition of lipid peroxidation” for short) in the data set with liver microsomes is “not effective”.

`Oc1ccc2c(c1)CCS2` [X═S]: the “inhibition of lipid peroxidation” value in the data set on liver microsomes is recorded as “not effective”.

As to `Oc1ccc2c(c1)CC[Te]2` [X═Te], in data set [3], the “catalyst activity in the reaction between glutathione and hydroperoxide (thiol peroxidase activity)” value is “highly active catalyst”. Moreover, in the data set on liver microsomes, the “inhibition of lipid peroxidation” value was “potent inhibitor”. For the same compound, the antioxidant capacity entry in [4] (two-phase system, presence of a reducing agent) is reported as “best antioxidant capacity”.

On to `CC[Te]c1nc(C)cc(C)c1O` [Comparative Compound 2], for which the results for the toxic concentration in data set [5] (24 hrs incubation), in data set [5] (48 hrs incubation) and in [5] (72 hrs incubation) were 500 µM, 200 µM and 200 µM, respectively. Also, the “relative toxicity among the compounds” value in [5] was “slightly more toxic than Compounds 1”. Also, the “cell viability at highest concentration” value with PLB985 cells was “decrease in cell viability”. In data set [6], the “antioxidative effect on intracellular ROS” value is “lesser effect”. The “concentration at which cells were affected (visual)” value in [7] (24 hrs) turned out to be 500 µM; in data set [7] (48 hrs) it was 200 µM. Moreover, the “antioxidative effect on extracellular ROS” value in data set [8] is listed as “less potent”. Moreover, the “Inhibited Rate of Linoleic Acid Peroxidation (Rinh)” value in data set [4] is 22 µM/h.

For the compound `Oc1ccc2c(c1)CC[Se]2` [X═Se], the “catalyst activity in the reaction between glutathione and hydroperoxide (thiol peroxidase activity)” value in data set [3] was “insignificant”. The “inhibition of lipid peroxidation” value in the data set on liver microsomes is “not effective”. For the same compound, in data set [4] (two-phase system, absence of thiol reducing agent), the “inhibition of azo-initiated peroxidation of linoleic acid” value is reported as “poor inhibitor”.

`CCCCCCCC[Te]c1nc(C)cc(C)c1O` [Comparative Compound 3]: the toxic concentration in data set [5] (24 hrs incubation), in data set [5] (48 hrs incubation) and in [5] (72 hrs incubation) was 100 µM each time. Further, the “relative toxicity among the compounds” value in data set [5] is on record as “most toxic compound”. The “cell viability at highest concentration” value in the data set on PLB985 cells was “decrease in cell viability”. Further, the “antioxidative effect on intracellular ROS” value in data set [6] is recorded as “lesser effect”. In addition, in [7] (24 hrs), the “concentration at which cells were affected (visual)” value came out at 100 µM. Also, the “antioxidative effect on extracellular ROS” value in data set [8] is on record as “less potent”. In data set [4], the “Inhibited Rate of Linoleic Acid Peroxidation (Rinh)” value is 8 µM/h.
